In PMC3723878 (PLoS ONE, 2013):
Numbering of substitutions follows the chain as printed.

Key:
Test in all cases: Saturation binding of ^125I-HEAT
[1] = molecular target: T1, human α1A-AR F312A variant (Homo sapiens, UniProt P35348, F312A)
T1 construct: expressed in transfected cells; host or cells: COS-7 (transient, calcium phosphate), membranes
T1 sequence (P35348 1-466 F312A): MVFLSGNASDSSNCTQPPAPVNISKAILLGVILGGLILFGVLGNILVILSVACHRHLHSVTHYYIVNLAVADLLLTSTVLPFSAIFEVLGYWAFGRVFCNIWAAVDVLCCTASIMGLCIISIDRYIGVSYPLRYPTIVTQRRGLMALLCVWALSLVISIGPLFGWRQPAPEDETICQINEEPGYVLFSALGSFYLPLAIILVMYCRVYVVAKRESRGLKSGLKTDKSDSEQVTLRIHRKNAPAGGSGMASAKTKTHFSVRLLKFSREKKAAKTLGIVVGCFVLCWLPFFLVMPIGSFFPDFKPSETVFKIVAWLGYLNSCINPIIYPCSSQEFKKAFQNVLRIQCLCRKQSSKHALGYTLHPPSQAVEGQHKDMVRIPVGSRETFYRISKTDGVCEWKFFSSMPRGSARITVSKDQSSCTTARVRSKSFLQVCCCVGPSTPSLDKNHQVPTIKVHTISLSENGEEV
Source text: (§1) α1A-AR cDNA inserted in the prK5 vector was kindly provided by Michael Brownstein (Craig Venter Institute, Rockville, MD). Point mutations were introduced into the α1A-AR gene by sense and antisense primers (Sigma-Aldrich, St Quentin-Fallavier, France) containing the desired changes, using the QuikChange Site-Directed Mutagenesis kit. The incorporation of each mutation was verified by DNA sequencing.
(§2) CHO cells stably expressing α1-ARs were kindly provided by Dr. Hervé Paris (INSERM U858, Toulouse, France) and were grown in a 50∶50 Dulbecco's Modified Eagle's Medium (DMEM)/Ham's F12 medium supplemented with 10% (v/v) foetal bovine serum (FBS), glutamine (2 mM), penicillin (100 units/ml) and streptomycin (100 µg/ml) at 37°C with 5% CO2. COS-7 cells were grown at 37°C under 5% CO2 in Dulbecco's modified Eagle's medium containing 10% fetal calf serum, 1% penicillin and 1% glutamine (Sigma-Aldrich, St Quentin-Fallavier, France). At 80% confluence, the cells were transfected using a calcium phosphate precipitation method for transient expression of the genetic construct. After 48 h incubation at 37°C, cells were harvested and the membranes were prepared as follow. Cells were washed with ice-cold phosphate buffer and centrifuged at 1700 g for 10 min (4°C). The pellet was suspended in ice-cold buffer (1 mM EDTA, 25 mM sodium phosphate, and 5 mM MgCl2, pH 7.4) and homogenized using an Potter-Elvehjem homogenizer (Fisher Scientific Labosi, Elancourt, France). The homogenate was centrifuged at 1700 g for 15 min (4°C). The sediment was resuspended in buffer, homogenized, and centrifuged at 1700 g for 15 min (4°C). The combined supernatants were centrifuged at 35,000 g for 30 min (4°C), and the pellet was suspended in the same buffer (0.1 ml/dish). […] Cells were grown in a 50∶50 Dulbecco's Modified Eagle's Medium (DMEM)/Ham's F12 medium supplemented with 10% (v/v) foetal bovine serum (FBS), glutamine (2 mM), penicillin (100 units/ml) and streptomycin (100 µg/ml) at 37°C with 5% CO2. Media was changed every 2–3 days and cells were passaged when confluent with 0.05% trypsin and 0.02% EDTA.
(§3) Binding experiments were performed in a 100 µL reaction mix at room temperature in buffer composed of 50 mM Tris-HCl, pH 7.4, 10 mM MgCl2, 1 g/L BSA. Reactions were stopped by filtration through 96 GF/C filter plates pre-incubated with 0.5% polyethylenimine.
(§4) Binding data were analyzed by nonlinear regression using the KaleidaGraph 4.0 software (Synergy software, Reading, PA). pKD values and Bmax (number of binding sites) were determined by applying a nonlinear regression to data obtained with saturation binding assays. The nonlinear regression used was BS = (Bmax*A)/KD+A, where BS is the specific binding, Bmax the number of binding sites, A the concentration of radioligand, and KD the dissociation constant of the radioligand. Data resulting from competition binding assays were analyzed using the Hill equation for IC50 and curve slope estimations. […] The linear curves were analyzed with IC50 = Ki+(L/KD)*Ki. Dissociation kinetics were analyzed using a simple equation of exponential decay BS * exp (-Koff*t), where BS is the specific binding at time zero and Koff is the dissociation rate constant. Results are expressed as mean ± s.e. mean from n independent experiments. One-way Anova test was used to compare values. A p<0.05 was accepted for statistical significance.

[2] = molecular target: T2, human α1A-AR F86A variant (Homo sapiens, UniProt P35348, F86A); settings: F86A (2.64), n = 3–6
T2 construct: expressed in transfected cells; host or cells: COS-7, transient (calcium phosphate)
T2 sequence (P35348 1-466 F86A): T1 sequence (P35348 1-466 F312A) with F86A, A312F
Source text: as §1, §2, §3, §4

[3] = molecular target: T3, human α1A-AR M292A variant (Homo sapiens, UniProt P35348, M292A)
T3 construct: expressed in transfected cells; host or cells: COS-7 (transient, calcium phosphate), membranes
T3 sequence (P35348 1-466 M292A): T1 sequence (P35348 1-466 F312A) with M292A, A312F
Source text: as §1, §2, §3, §4

`O=C1c2ccccc2CCC1CNCCc1ccc(O)c([125I])c1` (centres unmarked) [125I-HEAT] was tested, and the “^125I-HEAT Ratio (loss of affinity relative to WT)” value ([1]; F312A) was 0.44, the “^125I-HEAT pKd” value ([1]; F312A (7.39), saturation binding, n = 3–6) was 10.40±0.10 and the “^125I-HEAT pKd” value [2] was 8.68±0.09. For the same compound, the “^125I-HEAT Ratio (loss of affinity relative to WT)” value ([3]; M292A) was 2.2 and the “^125I-HEAT pKd” value ([3]; M292A (6.55), saturation binding, n = 3–6) was 9.69±0.09.
